Reference: patent US20090148424A1, “Reversibly immortalized mammalian liver cells and use thereof” (priority 2004, published 2009)

Tests used:
CYNK-1 cell = experiment: Ganciclovir sensitivity of CYNK-1 cell (MTT assay); type: cell-based, human; conditions: one-week cultivation with 5 μM of GCV
Text: (§1) Two hundred CYNK-1 cells (deposited with International Patent Organism Depository, National Institute of Advanced Industrial Science and Technology, address: AIST Tsukuba Central 6, 1-1, Higashi 1-Chome, Tsukuba-shi, Ibaraki-ken, 305-8566 Japan, deposited date: Mar. 10, 2004, accession number: FERM BP-08657) were inoculated in a 96-well plate, cultured in CS-C serum free culture medium alone or CS-C serum free culture media containing various concentrations of ganciclovir (5, 10, 20, 50 or 100 μM) and then cell proliferation was investigated by MTT assay (see Mcsmann T. J., Immunol. Methods, 65, 55, 1983).
Cell viability is shown in FIG. 7 as relative sensitivity. Ganciclovir sensitivity of the CYNK-1 cell (deposited with International Patent Organism Depository, National Institute of Advanced Industrial Science and Technology, address: AIST Tsukuba Central 6, 1-1, Higashi 1-Chome Tsukuba-shi, Ibaraki-ken, 305-8566 Japan, deposited date: Mar. 10, 2004, accession number: FERM BP-08657) depends on the concentration of ganciclovir.

reverted CYNK-1 cells = experiment: Ganciclovir sensitivity of reverted CYNK-1 cells; type: cell-based, human
Text: as §1, with “[…].,” for “Mcsmann T. J.,”, “1983). […] All of the cells died within 10 days.” for “1983).”

With `Nc1nc(O)c2ncn(COC(CO)CO)c2n1` [GCV, ganciclovir] the “effect on cell proliferation / viability” value (CYNK-1 cell) was “stopped cell proliferation and some of the cells died”, the “time until all of the cells died” value (reverted CYNK-1 cells; 5 μM of GCV) was at most 10 days and the “effect on cell proliferation / viability” value (reverted CYNK-1 cells; one-week cultivation in the presence of 5 μM of GCV) was “stopped cell proliferation and some of the cells died”.
